For 14 compounds, inhibition and IC50 results are on record in patent US8598132B2, “Glycosylated indolocarbazoles, method for obtaining same and uses thereof” (Universidad de Oviedo, priority 2008, dated 2013).

The target of one assay is JAK2 (Homo sapiens, UniProt O60674). The experiment in a line: LabChip (Caliper) kinase assay, JAK2. It is filed as biochemical. Conditions: for inhibition at 0.01 µM / inhibition at 0.1 µM: JAK2, read-out: remaining kinase activity (in %) / percentage of inhibition; for inhibition at 0.01 µM: compound at 10 nM; for inhibition at 0.1 µM: compound at 100 nM; for IC50: Jak2, ATP at Km, read-out: CI50 (the source's name). How it is done: (§1) The analysis of kinase activity described here was performed using LabChip (Caliper Life Sciences), specifically the Caliper LC3000 and the EZ Reader II instruments.
(§2) The kinase assay used measures the conversion of a fluorescent peptide (substrate) to a phosphorylated product. The reaction mixture, in a microplate well, is introduced by a capillary in a chip where the non-phosphorylated substrate and the phosphorylated product are separated by […]. The intensity of the fluorescent signal over time is related to the reaction progress. The phosphorylated product migrates quicker than the non-phosphorylated substrate and the signals of the two forms of the peptide appear as differentiated peaks. The Caliper determines the peak height and calculates the ratio of product to the peak sum (P/(P+S)). This value is used to compare wells with compounds and wells with controls and thus determine the % of inhibition for the given product.
(§3) The followings kinases were used for the enzymatic inhibition studies, between brackets the value of the Michaelis-Menten constant, Km, of the ATP (Adenosine triphosphate) for each kinase, in μM: obtained from Carna Biosciences: MAPKAPK2 (4.6), AurA (3.6), AurB (5), PKCζ (3.8), RSK1 (23.3), PRAK (5), Erk1 (33.4), PKD2 (32.1), CK1d (16.3), CHK1 (33), ABL (61.7), FYN (36), LYNa (17), CHK2 (57.8), MET (79.5), LCK (28.5), SRC (38), GSK3β (7.3), Erk2 (62.1), PKACα (1.7), AKT2 (186.1), INSR (871.8), p38a (396.5), AKT1(48), MSK1 (21.2), PKCβ2 (84.8), ROCK2 (3.3), PIM2 (4.9), AMPK (38.6), KDR (164.8), IRAK4 (196.5), SGK1 (121.8), SYK (33.5); obtained from Invitrogen: CDK2 (57.6), BTK (123), HGK (80); obtained from Upstate: MST2 (36.6), PKGα (16), PAK2 (1.9), IGF1R (320), FGFR1 (171), MARK1 (33), CAMK2δ (22.4), c-TAK1 (66), DYRK1a (18.1), CaMK4 (3.9), FLT3 (350), c-Raf (6.2), P70S6K (95).
(§4) The compounds were dissolved in 100% DMSO and were diluted at 25 times the final concentration desired for the assay. In the case of the determination of Cl50, serial dilutions were made to reach eight concentrations and give rise to the inhibition curve. 1 μL of each concentration is transferred, in duplicate to a 384-well microplate. 12 μL of enzymatic buffer is added to each well containing purified kinase (several suppliers as indicated above), 100 mM HEPES, pH 7.5, 1 mM DTT (Calbiochem), 0.002% Brij-35 (Sigma) and also in presence of 10 mM MgCl2 as cofactor, except for INSR and IRAK4 wherein 10 mM MnCl2 is used instead of MgCl2. For the kinases CAMK26 and CAMK4, 1 mM CaCl2 and 6.7 μg/mL of calmodulin are also added. For KDR kinase, 0.05% of the CHAPSO detergent is added. For the c-Raf kinase, 10 mM MnCl2 is added. For PKCβ2 0.02 μg/mL of PS/PMA is added. For PKGα se 10 μM of cGMP (cyclic guanosine monophosphate) is added. The compound and the enzyme are left for 15 minutes preincubation and, then, the following are added to each well: 12 μL of peptide buffer/ATP containing 100 mM HEPES, pH 7.5, 1.5 μM peptide marker with fluorescein (specific for the corresponding kinase), ATP (at concentration KM), and 0.002% Brij-35 to start the reaction. Generally, the reactions are incubated for 1-1.5 h at ambient temperature to obtain an adequate conversion (15-40%) of the peptide to the phosphorylated product. The reactions were ended by the addition of 45 μL of buffer containing 0 mM EDTA. The microplates were read by the LabChip 3000 using a 12-channel LabChip. The P/(P+S) values were obtained as described above and the CI50 curves were generated using XIfit.
(§5) Table 9a has the 0150 data obtained in pairs of compound-kinase selected from the compounds of formula (VII), (VIII), (IX), (XVI), (XVII) and (XVIII) after taking inhibition measurements at 100 nM and 10 nM. Those couples that provide >70% of inhibition at 10 nM were consider for measuring its IC50. […]

The target in a further assay is T1, FLT3 (Homo sapiens, UniProt P36888).
T1 construct: purchased Upstate
T1 sequence (P36888 27-993): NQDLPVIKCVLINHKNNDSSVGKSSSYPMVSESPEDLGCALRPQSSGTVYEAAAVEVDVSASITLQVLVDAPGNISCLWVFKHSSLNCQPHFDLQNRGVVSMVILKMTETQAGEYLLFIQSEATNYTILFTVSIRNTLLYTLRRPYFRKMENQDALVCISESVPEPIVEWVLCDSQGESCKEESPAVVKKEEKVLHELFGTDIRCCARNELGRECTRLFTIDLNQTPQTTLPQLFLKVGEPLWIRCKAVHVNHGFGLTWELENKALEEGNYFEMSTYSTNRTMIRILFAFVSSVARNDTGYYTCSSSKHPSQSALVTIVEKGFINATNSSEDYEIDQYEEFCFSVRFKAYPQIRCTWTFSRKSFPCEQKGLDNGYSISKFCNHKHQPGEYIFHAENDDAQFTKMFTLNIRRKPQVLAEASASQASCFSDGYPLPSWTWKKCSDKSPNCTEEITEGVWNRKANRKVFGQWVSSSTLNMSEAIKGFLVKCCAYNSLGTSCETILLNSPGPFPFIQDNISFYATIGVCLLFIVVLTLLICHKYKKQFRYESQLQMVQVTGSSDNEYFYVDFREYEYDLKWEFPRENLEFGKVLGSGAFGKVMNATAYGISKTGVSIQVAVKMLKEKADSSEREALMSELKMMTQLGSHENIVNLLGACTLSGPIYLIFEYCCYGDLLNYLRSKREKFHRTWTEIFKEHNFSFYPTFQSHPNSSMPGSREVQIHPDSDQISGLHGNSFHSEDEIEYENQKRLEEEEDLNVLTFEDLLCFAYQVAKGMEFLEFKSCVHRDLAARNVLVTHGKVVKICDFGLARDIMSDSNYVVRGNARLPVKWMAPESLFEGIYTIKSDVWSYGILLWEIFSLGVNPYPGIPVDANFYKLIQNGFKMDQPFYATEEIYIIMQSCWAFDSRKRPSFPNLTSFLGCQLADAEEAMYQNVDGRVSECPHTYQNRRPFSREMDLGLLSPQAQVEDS
The experiment in a line: LabChip (Caliper) kinase assay, FLT3. It is filed as biochemical. The settings on record: for inhibition at 0.01 µM / inhibition at 0.1 µM: FLT3, read-out: remaining kinase activity (in %) / percentage of inhibition; for inhibition at 0.01 µM: compound at 10 nM; for inhibition at 0.1 µM: compound at 100 nM; for IC50: Ftl3, ATP at Km, read-out: CI50 (the source's name). As for the experimental part:
as §1, §2, §3, §4, §5

Molecules are shown by their SMILES.

Sequence of JAK2 (O60674 whole entry, species assumed): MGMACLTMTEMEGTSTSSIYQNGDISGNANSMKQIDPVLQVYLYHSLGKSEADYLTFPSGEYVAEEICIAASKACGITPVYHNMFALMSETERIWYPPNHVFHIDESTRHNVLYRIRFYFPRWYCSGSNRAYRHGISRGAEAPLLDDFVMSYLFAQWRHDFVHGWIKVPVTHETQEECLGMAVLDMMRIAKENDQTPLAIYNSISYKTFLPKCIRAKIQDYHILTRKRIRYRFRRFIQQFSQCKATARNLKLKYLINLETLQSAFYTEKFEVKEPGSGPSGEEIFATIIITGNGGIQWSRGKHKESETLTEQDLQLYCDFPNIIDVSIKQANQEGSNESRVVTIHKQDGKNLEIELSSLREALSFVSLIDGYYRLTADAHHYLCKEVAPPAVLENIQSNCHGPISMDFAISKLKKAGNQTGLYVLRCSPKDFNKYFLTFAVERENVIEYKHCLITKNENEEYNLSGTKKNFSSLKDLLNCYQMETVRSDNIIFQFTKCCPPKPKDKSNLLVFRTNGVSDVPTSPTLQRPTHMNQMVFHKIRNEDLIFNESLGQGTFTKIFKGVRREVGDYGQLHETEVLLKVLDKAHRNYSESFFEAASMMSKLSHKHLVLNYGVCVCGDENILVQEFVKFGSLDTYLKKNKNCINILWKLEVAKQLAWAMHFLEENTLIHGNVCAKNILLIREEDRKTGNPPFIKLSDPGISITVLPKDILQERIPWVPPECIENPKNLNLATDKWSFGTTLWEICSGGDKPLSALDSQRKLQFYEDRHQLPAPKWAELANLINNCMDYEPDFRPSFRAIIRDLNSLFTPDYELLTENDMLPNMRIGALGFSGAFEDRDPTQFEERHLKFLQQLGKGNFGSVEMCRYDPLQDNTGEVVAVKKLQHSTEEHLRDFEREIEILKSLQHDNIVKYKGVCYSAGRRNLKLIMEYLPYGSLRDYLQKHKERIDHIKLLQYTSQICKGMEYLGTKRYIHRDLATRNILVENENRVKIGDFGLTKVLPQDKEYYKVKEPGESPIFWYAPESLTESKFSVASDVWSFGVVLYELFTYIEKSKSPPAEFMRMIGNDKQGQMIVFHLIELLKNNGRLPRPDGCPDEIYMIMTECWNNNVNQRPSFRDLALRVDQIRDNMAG

For the compound `C[C@@H]1O[C@@H](n2c3ccccc3c3c4c(c5c6ccccc6[nH]c5c32)C(=O)NC4=O)[C@H](O)[C@H](O)[C@H]1O` [formula (III), N^13-1′-β-L-rhamnosylarcyriaflavin], at JAK2, the inhibition at 0.01 µM was -3% and the inhibition at 0.1 µM came out at 33%. Besides, at FLT3, the inhibition at 0.01 µM was -10% and the inhibition at 0.1 µM is 25%.
In the same order, the values of `C[C@@H]1O[C@@H](n2c3ccccc3c3c4c(c5c6ccccc6[nH]c5c32)C(=O)NC4=O)C[C@H](O)[C@H]1O` [formula (IV), N^13-1′-β-L-olivosylarcyriaflavin] are 19%, 74%, 20% and 81%.
Turning to `C[C@]12O[C@H](C[C@@H](O)[C@H]1O)n1c3ccccc3c3c4c(c5c6ccccc6n2c5c31)C(=O)NC4=O` [formula (IX), N^12-5′(S)-N^13-1′-(R)-L-digitoxosylarcyriaflavin], the IC50 was 1.2 nM at JAK2 and 0.43 nM at FLT3.
As to `C[C@@H]1O[C@@H](n2c3ccccc3c3c4c(c5c6ccccc6[nH]c5c32)C(=O)NC4=O)C[C@@H](O)[C@H]1O` [formula (V), N^13-1′-β-L-digitoxosylarcyriaflavin], the inhibition at 0.01 µM at JAK2 is 23%; at FLT3, 63%. Besides, the results for the inhibition at 0.1 µM at JAK2 and on FLT3 were 65% and 95%, respectively.
In the same order, the values of `C[C@H]1O[C@@H](n2c3ccccc3c3c4c(c5c6ccccc6[nH]c5c32)C(=O)NC4=O)C[C@@H](O)[C@@H]1O` [formula (VI), N^13-1′-β-D-olivosylarcyriaflavin] are 42%, 51%, 88% and 98%.
Turning to `C[C@]12O[C@H]([C@H](O)[C@H](O)[C@H]1O)n1c3ccccc3c3c4c(c5c6ccccc6n2c5c31)C(=O)NC4=O` [formula (VII), N^12-5′(S)-N^13-1′-(R)-L-rhamnosylarcyriaflavin], the IC50 on JAK2 is 0.5 nM; at FLT3 it was 0.57 nM.
Taken in the same sequence, the figures for `C[C@]12O[C@H](C[C@H](O)[C@H]1O)n1c3ccccc3c3c4c(c5c6ccccc6n2c5c31)C(=O)NC4=O` [formula (VIII), N^12-5′(S)-N^13-1′-(R)-L-olivosylarcyriaflavin] were 0.74 nM and 0.56 nM.
Consider `C[C@@H]1O[C@@H](n2c3ccccc3c3c4c(c5c6ccccc6[nH]c5c32)CNC4=O)[C@H](O)[C@H](O)[C@H]1O` [formula (XII), N^13-1′-β-L-rhamnosyl-k252c], for which, at JAK2, the inhibition at 0.01 µM is 7% and the inhibition at 0.1 µM amounted to 39%. Further, on FLT3, the inhibition at 0.01 µM is -7% and the inhibition at 0.1 µM was 35%.
In the same order, the values of `C[C@@H]1O[C@@H](n2c3ccccc3c3c4c(c5c6ccccc6[nH]c5c32)CNC4=O)C[C@H](O)[C@H]1O` [formula (XIII), N^13-1′-β-L-olivosyl-k252c] are 14%, 79%, 34% and 89%.
Taken in the same sequence, the figures for `C[C@@H]1O[C@@H](n2c3ccccc3c3c4c(c5c6ccccc6[nH]c5c32)CNC4=O)C[C@@H](O)[C@H]1O` [formula (XIV), N^13-1′-β-L-digitoxosyl-k252c] were -4%, 25%, 20% and 79%.
In the same order, the values of `C[C@H]1O[C@@H](n2c3ccccc3c3c4c(c5c6ccccc6[nH]c5c32)CNC4=O)C[C@@H](O)[C@@H]1O` [formula (XV), N^13-1′-β-D-olivosyl-k252c] are 37%, 89%, 76% and 106%.
As for `C[C@]12O[C@H]([C@H](O)[C@H](O)[C@H]1O)n1c3ccccc3c3c4c(c5c6ccccc6n2c5c31)CNC4=O` [formula (XVI), N^12-5′(S)-N^13-1′-(R)-L-rhamnosyl-k252c], the IC50 was 0.43 nM on JAK2 and 0.59 nM on FLT3.
Taken in the same sequence, the figures for `C[C@]12O[C@H](C[C@H](O)[C@H]1O)n1c3ccccc3c3c4c(c5c6ccccc6n2c5c31)CNC4=O` [formula (XVII), N^12-5′(S)-N^13-1′-(R)-L-olivosyl-k252c] were 0.57 nM and 0.54 nM.
Consider `C[C@]12O[C@H](C[C@@H](O)[C@H]1O)n1c3ccccc3c3c4c(c5c6ccccc6n2c5c31)CNC4=O` [formula (XVIII), N^12-5′(S)-N^13-1′-(R)-L-digitoxosyl-k252c], for which, on JAK2, the IC50 was found to be 0.53 nM.
